From publication PMC11288129, “Diversely evolved xibalbin variants from remipede venom inhibit potassium channels and activate PKA-II and Erk1/2 signaling” (BMC Biology, 2024) come the findings set out here.

Positions of bridges follow the written chain, without caps; N, C: chain ends. No end group written: not given here.

One assay deals with rNav1.2. Briefly: TEVC inhibition, Nav1.2. The format is cell-based, rat. Conditions: 1 µM, Xenopus oocytes, ND96, 18–22 °C, mean ± SEM, n ≥ 3. An excerpt: For the expression of Kv channels rat Kv1.1 (GenBank accession number: NM_173095 [88, 89]), rKv1.2 (NM_012970 [90, 91]), human Kv1.3 (NM_002232 [92, 93]), rKv1.4 (NM_012971 [94, 95]), rKv1.6 (NM_023954 [96, 97]), hKv2.1 (NM_004975 [98, 99]), hKv3.1 (NM_004976 [100, 101]), rKv4.2 (NM_031739 [102, 103]), hKv10.1 (NM_172362 [104, 105]), hERG1 [Kv11.1, (NM_000238 [106, 107])], and Shaker IR [from Drosophila melanogaster, (NM_167595 [108, 109])], Nav channels [rNav1.2 (NM_012647 [42, 110]), rNav1.4 (NM_013178 [111, 112]), hNav1.5 (NM_198056 [113, 114]), mNav1.6 (NM_001077499 [115, 116]), BgNav [from Blattella germanica, (DQ466887 [117, 118])] and the auxiliary subunits rβ1 (NM_001271045 [119, 120]), hβ1 (NM_001037 [121, 122]), and TipE [from D. melanogaster, (NM_079196 [109, 123])], and Cav channels hCav3.1 [124, 125], hCav3.2 [126, 127], and hCav3.3 [128, 129] in Xenopus oocytes, the linearized plasmids were transcribed using the T7 or SP6 mMESSAGEmMACHINE transcription kit (Ambion, Austin, TX, USA). […]
Whole-cell currents of oocytes were recorded 1 to 3 days after injection. […] The current–voltage (IV) relationships were determined by 100-ms step depolarizations between − 90 and + 40 mV, using 5 mV increments. […]

The subject of assay [1] is HMEC-1 human microvascular endothelial cells. The assay is described as follows: Proliferation of HMEC-1 cells (crystal violet). The format is cell-based. Conditions: 25 µg/ml. On the procedure: We initially determined the cytotoxic effects of xibalbins on primary sensory neurons from adult male rats cultured in vitro [2]. […] We exposed overnight cultures of dissociated rat dorsal root ganglions (DRGs) to xibalbins for 5 and 30 min. Subsequently, all cells were fixed and immunocytochemically stained for the neuronal marker UCHL1 to identify neurons. The entire culture was digitally scanned using high content imaging (HCI) microscopy, and cell numbers, UCHL1 staining per cell, and cell size was analyzed. No loss of neurons was induced by either of the tested xibalbins, even at the highest concentration of 0.8 µg/µL (Additional File 3: Figure S2). […] We further investigated the potential toxicity of xibalbins in monocyte/macrophage-like cells (RAW264.7) and human microvascular endothelial cells (HMEC); see Additional File 5: Figure S4 The viability of RAW264.7 cells was detected using a formazan-based assay, while the proliferation of HMECs was assessed by measuring the number of crystal violet-stained cells.
Supplementary file 12915_2024_1955_MOESM5_ESM.jpg: Additional file 5: Figure S4. Effects of xibalbins on cytotoxicity in RAW264.7 macrophages and adhesion of leukocytes onto the vascular endothelium. […] Cells were incubated with WST-8 and the formed formazan was detected by absorbance measurements. […] The amount of DNA-bound crystal violet was detected by absorbance measurements. […]

For “KRSCIRRFGRCDHRPNDCCYNSSCRCNLWGSNCRCQRMGLFQKWGK (disulfide 4-19, 11-24, 18-35, 26-33) [xib13]”, the “inhibition of Nav1.2” value with rNav1.2 worked out at 15.6 ± 2.6%. Moreover, the “Prolif. HMEC-1” value in assay [1] was 91.3.
